# Reference: patent US20080261994A1, “CYCLOPROPANE COMPOUNDS AND PHARMACEUTICAL USE THEREOF” (Japan Tobacco Inc., priority 2003, published 2008)
# Read-outs that look alike come from different tables or passages of the source.
# Columns and labels:
# Assay type in all cases: biochemical
# [1] = biological target: T1, MMP-1 (Homo sapiens, UniProt P03956); assay: MMP-1 inhibitory action (Type I collagen Activity Measurement kit, FITC-labeled collagen type I)
# T1 sequence (P03956 100-469): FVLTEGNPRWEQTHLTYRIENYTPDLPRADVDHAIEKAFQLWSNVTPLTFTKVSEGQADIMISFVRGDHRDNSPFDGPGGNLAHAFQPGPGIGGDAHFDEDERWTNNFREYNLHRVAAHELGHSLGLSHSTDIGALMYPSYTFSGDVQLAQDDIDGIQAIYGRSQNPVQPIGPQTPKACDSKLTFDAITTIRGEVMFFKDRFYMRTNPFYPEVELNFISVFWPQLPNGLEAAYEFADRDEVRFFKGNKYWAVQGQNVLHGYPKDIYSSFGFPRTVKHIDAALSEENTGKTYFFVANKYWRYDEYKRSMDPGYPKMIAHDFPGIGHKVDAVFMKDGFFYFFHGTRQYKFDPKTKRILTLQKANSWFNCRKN
# [2] = biological target: T2, aggrecanase-1 (Homo sapiens, UniProt O75173); assay: Aggrecanase-1 inhibitory action (Particle Assay, GAG release from aggrecan-containing polyacrylamide particles)
# T2 sequence (O75173 213-837): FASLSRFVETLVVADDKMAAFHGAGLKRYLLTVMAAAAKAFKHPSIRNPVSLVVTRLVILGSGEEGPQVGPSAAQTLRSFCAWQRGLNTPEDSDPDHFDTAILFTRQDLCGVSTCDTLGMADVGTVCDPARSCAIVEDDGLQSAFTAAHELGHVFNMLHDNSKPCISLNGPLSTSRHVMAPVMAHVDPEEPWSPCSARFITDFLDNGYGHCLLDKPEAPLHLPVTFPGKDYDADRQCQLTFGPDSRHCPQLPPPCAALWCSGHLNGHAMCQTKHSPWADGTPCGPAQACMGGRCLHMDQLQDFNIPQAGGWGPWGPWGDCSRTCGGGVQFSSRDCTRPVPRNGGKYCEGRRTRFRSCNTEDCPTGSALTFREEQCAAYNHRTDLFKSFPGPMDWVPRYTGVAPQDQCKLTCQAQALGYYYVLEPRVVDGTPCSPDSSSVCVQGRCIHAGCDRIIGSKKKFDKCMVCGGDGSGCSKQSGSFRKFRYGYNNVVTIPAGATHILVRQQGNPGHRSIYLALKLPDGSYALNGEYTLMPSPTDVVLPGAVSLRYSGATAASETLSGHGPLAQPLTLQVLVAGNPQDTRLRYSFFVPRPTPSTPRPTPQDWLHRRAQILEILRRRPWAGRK
# How it was run: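 Enzyme and compound incubated with aggrecan-containing polyacrylamide particles in Tris-HCl buffer at 37° C for 15 h. Released GAG in supernatant measured with 1,9-dimethylmethylene blue at 595 nm against chondroitin sulfate standard; % inhibition from enzyme-free and inhibitor-free wells, reported as TC50 (μM).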
# [3] = biological target: T3, Recombinant Human MMP-13 (Homo sapiens, UniProt P45452); assay: MMP-13 inhibitory activity (MMP-13 specific fluorescent substrate with quencher)
# T3 construct: purchased R&D systems 511-MM
# How it was run: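 Recombinant human MMP-13 with test compound, reaction started with quenched fluorogenic peptide 7-MCA-Pro-CHA-Gly-NVal-His-Ala-DPA in Tris-HCl buffer, 1 h at 25 °C, stopped with acetic acid. Fluorescence at Ex 325/Em 405 nm; % inhibition versus enzyme-free and inhibitor-free wells, reported as IC50 (μM).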
# [4] = Experimental Example 2, read-out: IC50 MMP1
# [5] = Experimental Example 1, read-out: IC50 AG1
# [6] = Experimental Example 3, read-out: IC50 MMP13
# [7] = MMP-1 inhibitory action, FITC-labeled collagen type I, 37° C. for 3 hr, read-out: IC50 MMP1 (Experimental Example 2)
# [8] = aggrecanase-1 inhibitory action, read-out: IC50 AG1 (Experimental Example 1)
# [9] = Recombinant Human MMP-13, fluorescent substrate, 25° C. for 1 h, read-out: IC50 MMP13 (Experimental Example 3)
"IC50 [1, 4]","IC50 [2, 5]","IC50 [3, 6]","IC50 [1, 7]","IC50 [2, 8]","IC50 [3, 9]",Structure (SMILES)
< 1000 nM,< 1000 nM,< 100 nM,–,–,–,CN(C)c1cc(-c2ccc(S(=O)(=O)N[C@@]3(C(=O)O)C[C@]3(C)c3ccccc3)s2)no1 [Example 2-423]
≥ 1000 nM,< 1000 nM,< 1000 nM,–,–,–,O=C(O)C1(NS(=O)(=O)c2ccc(-c3ccc(Cl)cc3)s2)C2Cc3ccccc3C21 (stereo not drawn) [Example 2-431]
≥ 1000 nM,< 1000 nM,< 100 nM,–,–,–,CC1[C@H](c2ccccc2)[C@]1(NS(=O)(=O)c1ccc(-n2cccn2)s1)C(=O)O (stereo partly drawn) [Example 2-542]
≥ 10000 nM,< 1000 nM,< 1000 nM,–,–,–,CC1[C@H](c2ccccc2)[C@]1(NS(=O)(=O)N1CCn2c(nc3cc(Cl)ccc32)C1)C(=O)O (stereo partly drawn) [Example 2-445]
< 100 nM,< 100 nM,< 100 nM,–,–,–,COc1cnn(-c2ccc(S(=O)(=O)N[C@@]3(C(=O)O)C(C)[C@@H]3c3ccccc3)s2)c1 (stereo partly drawn) [Example 2-492]
≥ 10000 nM,≥ 1000 nM,≥ 1000 nM,–,–,–,CN(C)c1cc(-c2ccc(S(=O)(=O)N[C@@]3(C(=O)O)C[C@]3(C)c3ccccc3)s2)ccc1Cl [Example 2-488]
≥ 10000 nM,≥ 1000 nM,≥ 1000 nM,–,–,–,O=C(Nc1ccccc1)c1ccc(S(=O)(=O)N[C@@]2(C(=O)O)C[C@@H]2c2ccccc2)cc1 [Example 2-474]
≥ 1000 nM,< 1000 nM,< 1000 nM,–,–,–,CC1[C@H](c2ccccc2)[C@]1(NS(=O)(=O)c1ccc2nc(-c3ccccc3)[nH]c2c1)C(=O)O (stereo partly drawn) [Example 2-596]
≥ 1000 nM,< 100 nM,< 1000 nM,–,–,–,CSCC1(c2ccccc2)CC1(NS(=O)(=O)c1ccc(-c2ccc(Cl)cc2)s1)C(=O)O (stereo not drawn) [Example 2-432]
< 1000 nM,< 100 nM,< 100 nM,–,–,–,Cc1cc(-c2ccc(S(=O)(=O)N[C@@]3(C(=O)O)C(C)[C@@H]3c3ccccc3)s2)no1 (stereo partly drawn) [Example 2-374]
≥ 1000 nM,< 1000 nM,< 1000 nM,–,–,–,C[C@]1(c2ccccc2)C[C@@]1(NS(=O)(=O)c1ccc(-c2ccc(CO)c(F)c2)s1)C(=O)O [Example 2-594]
≥ 10000 nM,≥ 1000 nM,< 1000 nM,–,–,–,O=C(O)C1(NS(=O)(=O)c2ccc(OCc3ccc(Cl)cc3Cl)cc2)C2CCCc3ccccc3C21 (stereo not drawn) [Example 2-363]
≥ 10000 nM,≥ 1000 nM,≥ 1000 nM,–,–,–,C[C@]1(c2ccccc2)C[C@@]1(NS(=O)(=O)c1ccc(-c2cc(Cl)cc(Cl)c2)s1)C(=O)O [Example 2-448]
≥ 1000 nM,< 1000 nM,≥ 1000 nM,–,–,–,CN1CCN(CC2(c3ccccc3)CC2(NS(=O)(=O)c2ccc(-c3cc(C(F)(F)F)on3)s2)C(=O)O)CC1 (stereo not drawn) [Example 2-342]
≥ 1000 nM,≥ 1000 nM,≥ 1000 nM,–,–,–,CC1[C@H](c2ccccc2)[C@]1(NS(=O)(=O)N1CCc2ccccc2C1)C(=O)O (stereo partly drawn) [Example 2-535]

# The remaining lines, values behind:
Structure (SMILES),"IC50 [1, 4]","IC50 [2, 5]","IC50 [3, 6]","IC50 [1, 7]","IC50 [2, 8]","IC50 [3, 9]"
O=C1CCCCN1c1ccc(S(=O)(=O)N[C@@]2(C(=O)O)C[C@@H]2c2ccccc2)s1 [Example 2-164],–,–,–,≥ 10000 nM,≥ 10000 nM,≥ 10000 nM
O=C(O)[C@]1(NS(=O)(=O)c2ccc(-c3cc(C(F)(F)F)no3)s2)C[C@@H]1c1ccccc1 [Example 2-171],–,–,–,≥ 10000 nM,< 1000 nM,< 1000 nM
O=C(O)C1(NS(=O)(=O)c2ccc(-c3ccc(Cl)cc3)s2)CC1c1cccc(CNc2cccnc2)c1 (stereo not drawn) [Example 2-32],–,–,–,≥ 10000 nM,< 100 nM,< 100 nM
O=C(O)C1(NS(=O)(=O)c2ccc(-c3ccc(Cl)cc3)cc2)CC1c1cccc(OCCn2cccn2)c1 (stereo not drawn) [Example 1-75],–,–,–,≥ 1000 nM,< 1000 nM,< 100 nM
Cc1ccc(-c2ccccc2C2CC2(NS(=O)(=O)c2ccc(-c3ccc(Cl)cc3)s2)C(=O)O)cc1 (stereo not drawn) [Example 2-40],–,–,–,≥ 10000 nM,< 1000 nM,< 1000 nM
COCCN(C)C(=O)c1ccc(C2(CCCOC(C)=O)CC2(NS(=O)(=O)c2ccc(-c3cc(C(F)(F)F)on3)s2)C(=O)O)cc1 (stereo not drawn) [Example 2-271],≥ 10000 nM,≥ 1000 nM,< 1000 nM,–,–,–
CN(C)C(=O)Cc1ccc([C@@H]2C[C@]2(NS(=O)(=O)c2ccc(-c3cc(C(F)(F)F)on3)s2)C(=O)O)cc1 [Example 2-290],< 1000 nM,< 100 nM,< 100 nM,–,–,–
O=C(O)[C@]1(NS(=O)(=O)c2ccc(-c3cc(C(F)F)sn3)s2)C[C@@H]1c1ccccc1 [Example 2-119],–,–,–,< 1000 nM,< 100 nM,< 100 nM
Cc1nc(-c2ccc(S(=O)(=O)NC3(C(=O)O)CC3c3ccccc3)s2)c(Cl)o1 (stereo not drawn) [Example 2-88],–,–,–,≥ 10000 nM,≥ 10000 nM,≥ 10000 nM
O=C(CN1CCOCC1)Nc1cccc(C2CC2(NS(=O)(=O)c2ccc(-c3cc(C(F)(F)F)on3)s2)C(=O)O)c1 (stereo not drawn) [Example 2-260],–,–,–,≥ 1000 nM,< 1000 nM,< 100 nM
CC1(c2ccc(F)cc2)CC1(NS(=O)(=O)c1ccc(-c2cc(C(F)(F)F)on2)s1)C(=O)O (stereo not drawn) [Example 2-340],≥ 10000 nM,< 1000 nM,≥ 1000 nM,–,–,–
O=C(Cc1cccc(C2CC2(NS(=O)(=O)c2ccc(-c3cc(C(F)(F)F)on3)s2)C(=O)O)c1)N1CCC(O)CC1 (stereo not drawn) [Example 2-222],–,–,–,≥ 1000 nM,< 100 nM,< 100 nM
COC(=O)c1cccc(C2CC2(NS(=O)(=O)c2ccc(-c3ccc(Cl)cc3)s2)C(=O)O)c1 (stereo not drawn) [Example 2-184],–,–,–,≥ 1000 nM,< 100 nM,< 1000 nM
CN(C)c1cccc(C2CC2(NS(=O)(=O)c2ccc(-c3cc(C(F)(F)F)on3)s2)C(=O)O)c1 (stereo not drawn) [Example 2-228],–,–,–,≥ 1000 nM,< 1000 nM,< 1000 nM
O=C(O)CCc1cccc(C2CC2(NS(=O)(=O)c2ccc(-c3ccc(Cl)cc3)s2)C(=O)O)c1 (stereo not drawn) [Example 2-180],–,–,–,≥ 10000 nM,< 100 nM,< 100 nM
CC1[C@H](c2ccccc2)[C@]1(NS(=O)(=O)c1ccc(-c2cc(C(F)(F)F)no2)s1)C(=O)O (stereo partly drawn) [Example 2-338],≥ 1000 nM,< 100 nM,< 1000 nM,–,–,–
O=C(O)C1(NS(=O)(=O)c2ccc(-c3ccc(Cl)cc3)s2)CC1c1ccc(N2CCOCC2)cc1 (stereo not drawn) [Example 2-245],–,–,–,≥ 10000 nM,≥ 1000 nM,< 1000 nM
CC(C)C1(c2ccccc2)CC1(NS(=O)(=O)c1ccc(-c2ccc(Cl)cc2)s1)C(=O)O (stereo not drawn) [Example 2-123],–,–,–,≥ 10000 nM,< 1000 nM,< 1000 nM
O=C(OCC1(c2ccccc2)CC1(NS(=O)(=O)c1ccc(-c2cc(C(F)(F)F)on2)s1)C(=O)O)N1CCCCC1 (stereo not drawn) [Example 2-310],< 1000 nM,< 1000 nM,< 100 nM,–,–,–
O=C(O)[C@]1(NS(=O)(=O)c2ccc(-c3ccc(Cl)cc3)s2)C[C@@H]1c1ccccc1CO [Example 2-206],–,–,–,≥ 1000 nM,< 100 nM,< 100 nM
O=C(O)[C@]1(NS(=O)(=O)c2ccc(-c3cc(C(F)(F)F)on3)s2)C[C@@H]1c1cccc(Br)c1 [Example 2-169],–,–,–,≥ 1000 nM,< 100 nM,< 100 nM
CCCC#Cc1ccc(S(=O)(=O)N[C@@]2(C(=O)O)C[C@@H]2c2ccccc2)s1 [Example 2-133],–,–,–,≥ 10000 nM,≥ 10000 nM,< 1000 nM
O=C(O)C1(NS(=O)(=O)c2ccc(-c3cc(C(F)(F)F)on3)s2)CC1c1cccc([N+](=O)[O-])c1 (stereo not drawn) [Example 2-199],–,–,–,≥ 10000 nM,< 1000 nM,< 1000 nM
O=C1OCC2C(c3ccccc3)C12NS(=O)(=O)c1ccc(-c2cc(C(F)(F)F)on2)s1 (stereo not drawn) [Example 2-312],≥ 10000 nM,≥ 1000 nM,≥ 10000 nM,–,–,–
O=C(O)C1(NS(=O)(=O)c2ccc(-c3ccc(Cl)cc3)s2)CC1C1CCCCC1 (stereo not drawn) [Example 2-41],–,–,–,≥ 10000 nM,< 1000 nM,< 1000 nM
